{
  "source": "patent US9315544B2",
  "about": "“Method of treating eosinophilia by administering an immunomodulating peptide” (National Tsing Hua University, priority 2012, dated 2016)",
  "test_system": "human CCL11",
  "test": "CCL11 protein release from Beas-2B cells by ELISA",
  "format": "cell-based",
  "settings": "Beas-2B cells, 24 h",
  "experimental": "FIG. 2 illustrates CCL11 expression in CMP and ECP co-treated Beas-2B cells. Beas-2B cells were starved with serum free medium for 24 h, followed by stimulation with ECP (column 2). Cells were stimulated with PBS as negative control (column 1) and ECP in the absence of CMP (column 2) or presence of 1 μM (column 3), 2.5 μM (column 4), 5 μM (column 5), 10 μM (column 6) CMP at 37° C. for 24 h. CCL11 protein level was determined by ELISA kit employing CCL11 antibody. The data represented mean±SD (standard deviation) of at least three independent experiments. ***, p<0.001; **, p<0.01\nFIG. 3 illustrates CCL11 expression in CMP and IL-4 co-treated Beas-2B cells. Beas-2B cells were starved with serum free medium for 24 h, followed by stimulation with PBS (column 1) or 10 ng/mL IL-4 (column 2-7). Cells were stimulated with 10 ng/mL IL-4 in the absence […] or presence of 1 μM (column 3), 2.5 μM (column 4), 5 μM (column 5) and 10 μM (column 6) CMP at 37° C. for 24 h. CCL11 protein level was determined by ELISA kit employing CCL11 antibody. The data represented mean±SD (standard deviation) of at least three independent experiments. ***, p<0.001 (Stimulation with IL-4 compared with PBS treated Beas-2B cells). *, p<0.05 (Stimulation with indicated concentrations of CMP compared with IL-4 treated Beas-2B cells).\nCCL11 ELISA kit (R&D) is an in vitro enzyme-linked immunosorbent assay for quantitative determination of human CCL11 concentration in cell culture supernatants. This assay employed an antibody specific for human CCL11 coated on a 96-well plate. The wells were incubated with 50 μL standard or sample for 2.5 hours at room temperature. After washing with 1× wash solution five times, 200 μL of CCL11 conjugate were added into each wells for 1 h. After washing, 100 μL TMB One-Step Substrate Reagent were added into each wells at room temperature for 30 minutes. 50 μL of Stop Solution were added into each wells and read at 450 nm by spectrophotometer immediately. Limit of detection in the assay was 5 pg/mL.\nTo investigate whether CMP influenced ECP-mediated CCL11 expression, Beas-2B cells were separately stimulated with 5 μM ECP in the absence of CMP and in the presence of 1 μM, 2.5 μM, 5 μM and 10 μM CMP at 37° C. for 24 h.\nTo further investigate whether CMP influenced CCL11 production from other stimulation in Beas-2B cells, serum-deprived Beas-2B cells were stimulated with 10 ng/mL IL-4, a dominant cytokine regulating CCL11, alone or in the presence of CMP at concentrations 1, 2.5, 5 and 10 μM at 37° C. for 24 h.",
  "data": [
    {"sequence": "NYRWRCKNQN (CMP)", "values": [
      {"measurement": "release of CCL11 induced by IL-4, reduced to", "setting": "10 ng/mL IL-4 with 5 μM CMP", "value": 48.1, "unit": "pg/mL"},
      {"measurement": "release of CCL11 induced by IL-4, reduced to", "setting": "10 ng/mL IL-4 with 10 μM CMP", "value": 30.2, "unit": "pg/mL"},
      {"measurement": "CCL11 production induced by IL-4", "setting": "10 ng/mL IL-4 with 1 or 2.5 μM CMP", "value": "did not reduce"},
      {"measurement": "CCL11 induced by ECP, reduced to", "setting": "5 μM ECP and 5 μM CMP", "value": 7.55, "unit": "pg/mL"},
      {"measurement": "CCL11 induced by ECP, reduced to", "setting": "5 μM ECP and 10 μM CMP", "value": 8.94, "unit": "pg/mL"},
      {"measurement": "ECP-mediated CCL11 production", "setting": "5 μM ECP and 1 or 2.5 μM CMP", "value": "did not reduce"}
    ]}
  ]
}
